“Also recorded” adds a separate entry of the source.
Legend:
[1] = test system: tyrosine kinases; conditions: literature statement; by blocking the ATP binding site; cited from earlier work
[2] = biological target: T1, GLUT1 (Homo sapiens, UniProt P11166); conditions: literature statement; cited from earlier work
T1 sequence (P11166 1-492): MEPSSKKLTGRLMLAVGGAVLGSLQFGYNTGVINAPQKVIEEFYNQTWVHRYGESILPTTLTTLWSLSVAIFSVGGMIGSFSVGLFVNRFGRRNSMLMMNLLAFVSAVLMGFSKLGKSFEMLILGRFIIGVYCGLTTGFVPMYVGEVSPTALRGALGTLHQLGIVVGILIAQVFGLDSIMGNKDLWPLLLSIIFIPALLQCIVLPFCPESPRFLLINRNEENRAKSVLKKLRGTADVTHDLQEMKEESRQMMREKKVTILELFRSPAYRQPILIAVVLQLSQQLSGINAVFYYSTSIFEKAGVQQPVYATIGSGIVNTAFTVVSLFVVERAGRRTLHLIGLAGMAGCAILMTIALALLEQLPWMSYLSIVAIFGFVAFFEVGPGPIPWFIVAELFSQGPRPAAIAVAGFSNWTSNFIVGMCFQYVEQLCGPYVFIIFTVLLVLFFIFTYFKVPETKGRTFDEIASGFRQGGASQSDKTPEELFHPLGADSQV

[3] = biological target: T1, GLUT1; conditions: literature statement; cited from earlier work; remark: listed apart in the source
[4] = biological target: T2, GLUT1 (Mus musculus, UniProt P17809); test: Glucose measurements in retina, brain and red blood cells (RBC) of streptozotocin-diabetic mice; type: in vivo, C57BL/6 mice; conditions: for retinal glucose levels: diabetic mice; for retinal glucose (summary statement): systemic treatment of diabetic mice, dose not given
T2 sequence (P17809 1-492): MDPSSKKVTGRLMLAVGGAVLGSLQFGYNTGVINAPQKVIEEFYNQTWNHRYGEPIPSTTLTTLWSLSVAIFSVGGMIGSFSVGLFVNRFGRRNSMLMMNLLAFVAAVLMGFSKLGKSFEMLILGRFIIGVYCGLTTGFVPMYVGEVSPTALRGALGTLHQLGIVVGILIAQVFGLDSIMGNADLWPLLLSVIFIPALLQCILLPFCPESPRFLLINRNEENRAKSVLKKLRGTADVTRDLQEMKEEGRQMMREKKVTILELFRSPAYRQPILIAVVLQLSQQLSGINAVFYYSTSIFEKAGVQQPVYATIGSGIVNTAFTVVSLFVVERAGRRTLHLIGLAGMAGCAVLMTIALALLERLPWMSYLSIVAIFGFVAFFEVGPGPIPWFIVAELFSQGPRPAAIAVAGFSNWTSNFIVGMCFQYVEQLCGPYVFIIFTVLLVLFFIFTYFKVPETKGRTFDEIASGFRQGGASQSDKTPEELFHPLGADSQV

[5] = test system: adenylate cyclase; conditions: literature statement; cited from earlier work
[6] = test system: superoxide radicals; test: Superoxide radical assay (hydroethidine-induced fluorescence) in retinal homogenates of diabetic mice; type: in vivo, C57BL/6 mice; conditions: 1 month of diabetes; 1,9-dideoxyforskolin 0.1 mg/kg daily
Method: Superoxide radicals were measured in retinal homogenates by measuring dihydroethidine-induced fluorescence (Georgiou et al., 2008; Chen et al., 2009). Briefly, 200 μl reaction mixtures of freshly prepared retinal homogenates (20 μg protein) containing 2.5 μM dihydroethidium and 0.05 μg/μl salmon testes DNA were placed in 96-well microplates at 37° C. for 30 min. The fluorescence was measured at an excitation of 480 nm and an emission of 610 nm. Each sample was assayed in triplicate.

[7] = mice diabetic 2 months, 1,9-dideoxyforskolin 1 mg/kg daily IP, 5 hr after last dose, vs untreated diabetics

SMILES	tyrosine kinase inhibition [1]	GLUT1 glucose transport [2]	binding to GLUT1 [3]	retinal glucose levels ([4]; genistein 50 mg/kg/day IP, 4 weeks, vs untreated diabetics)	retinal glucose (summary statement) [4]	adenylate cyclase stimulation [5]	retinal glucose levels ([4]; 1,9-dideoxyforskolin 0.1 mg/kg/day IP, 2 or 4 weeks, vs untreated diabetics)	glucose levels in RBCs [4, 7]	glucose levels in brain [4, 7]	glucose levels in retina [4, 7]	increase of superoxide radicals (hydroethidine-induced fluorescence) in retinal homogenates [6]
O=c1c(-c2ccc(O)cc2)coc2cc(O)cc(O)c12 [genistein]	inhibits tyrosine kinases	suppresses glucose transport	binds to the ATP binding site of GLUT1	significantly reduced retinal glucose levels; also recorded: significant reduction in retinal glucose level	significantly reduced retinal glucose to the same levels seen in non-diabetics						
O=c1c(O)c(-c2cc(O)c(O)c(O)c2)oc2cc(O)cc(O)c12 [myricetin]			binds to the ATP binding site of GLUT1								
C=C[C@@]1(C)CC(=O)[C@@H]2[C@@]3(C)CCCC(C)(C)[C@@H]3[C@H](O)[C@H](OC(C)=O)[C@@]2(C)O1 [1,9-dideoxyforskolin]		blocks GLUT1-mediated glucose transport	binds GLUT1		equivalent effect to that of forskolin	lacks adenylate cyclase-stimulating activity	significantly reduced retinal glucose levels; also recorded: significant reduction in retinal glucose level	significant reduction; also recorded: decreased glucose levels	not in brain; also recorded: did not effect glucose levels	significant reduction; also recorded: decreased glucose levels	significantly blocked

Reference: patent US20140314740A1, “COMPOSITIONS AND METHODS FOR THE PREVENTION OR TREATMENT OF DIABETIC COMPLICATIONS” (The Johns Hopkins University, priority 2011, published 2014)
